In the METLIN SMRT retention time set (Domingo-Almenara et al. 2019) one finds RP-LC retention time data, which are given here for 80 compounds.

The series can be described thus: gradient 5% acetonitrile 3 min, to 50% in 2 min, to 85% in 15 min, held 3 min, 100 µL/min. The note with it: column: Zorbax Extend-C18 2.1 x 50 mm; eluents: water / acetonitrile, 0.1% formic acid. Put shortly:
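Standards, all pure, were combined into mixtures of ~100 molecules and run at 100 μL/min on a Zorbax Extend-C18 column (2.1 × 50 mm, 1.8 μm) with water and acetonitrile, each containing 0.1% formic acid. A coupled quadrupole time-of-flight mass spectrometer operated in positive and negative ionization mode. Retention time values come from computationally picked adduct peaks, each inspected manually.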
`COCc1nc(-c2ccc(OC3CCN(C(=O)C4(c5ccc(OC)cc5)CC4)C3)cc2)no1` (stereo not given) came in with an RP-LC retention time of 896 s.
The value for `CCC1CN2C=NC(N3CCN(C(=O)c4ccc(C)s4)CC3)=CC2=N1` (stereo not given) was 632 s; that for `COc1ccc(CC(=O)Nc2c3c(nn2-c2ccc([N+](=O)[O-])cc2)CSC3)cc1OC` was 777 s.
Compound `COc1ccccc1NS(=O)(=O)c1ccc(-c2nnc(C3CCC3)o2)o1` gave an RP-LC retention time of 904 s.
The value for `CC(=O)c1ccc(NC(=O)c2[nH]c3cc(C)sc3c2CN(C)C)cc1` was 638 s; that for `Cc1ccc(C)c(NC(=O)C2CCN(S(=O)(=O)c3cc(C(=O)N4CCCC4)n(C)c3)CC2)c1` was 747 s; that for `CCOCCCNC(=O)c1csc(-c2ccnc(N3CCCC3)c2)n1` was 592 s.
The compound `COc1ccc(Cc2nnc(C3CCN(C(=O)c4ccco4)CC3)s2)cc1` displayed an RP-LC retention time of 703 s.
The same measure for `COc1ccccc1-c1nc(Cc2noc(-c3ccccc3F)n2)c(C)o1`: 1020 s; for `CCSc1nc2ccc(NS(=O)(=O)c3ccc(F)c(C)c3)cc2s1`: 1060 s.
With `O=C(NCC1CCCO1)c1cccn1Cc1noc(-c2ccc(Cl)cc2)n1` (stereo not given), the RP-LC retention time turned out to be 943 s.
The same measure for `Cc1cccc(-c2nnc(-c3ccc(Cl)c(S(=O)(=O)N4CCCCC4)c3)o2)c1`: 1250 s; for `O=C(C1CCN(c2ccc(-c3cccs3)nn2)CC1)N1CCN(c2ccccn2)CC1`: 568 s; for `CC(=O)Nc1ccc(OCC(=O)NCc2cc(F)cc(F)c2)nc1`: 672 s.
The value for `CCc1noc(C2(NC(=O)c3nn(C)c4ccccc34)CCCCC2)n1` was 1010 s.
On to `CCC(Sc1nncn1C)C(=O)Nc1nnc(-c2cccc([N+](=O)[O-])c2)s1` (stereo not given), for which the RP-LC retention time was 689 s.
The value for `CCc1ccc(S(=O)(=O)N2CCCC2c2nc(-c3cccc(C)c3)no2)cc1` (stereo not given) was 1260 s.
The value for `Cc1ccccc1CN1CCN(CC(=O)N2CCN(Cc3ccccc3)CC2)C(=O)C1=O` was 609 s; that for `CCOc1ccccc1NC(=O)N1CCCC1c1nc(-c2ccccc2OC)no1` (stereo not given) was 809 s; that for `CC(C)S(=O)(=O)N1CCC(c2noc(-c3cccnc3)n2)C1` (stereo not given) was 730 s.
The same measure for `CSc1ccccc1C(=O)N1CCN(C(=O)C2CC2c2ccc3c(c2)OCO3)CC1` (stereo not given): 754 s.
Consider `O=C1NC2(CCN(C(=O)Nc3ccc(Cl)cc3)CC2)N=C1c1ccccc1`, for which the RP-LC retention time was 829 s.
For the compound `Cc1nn(CCCC(=O)NCc2ccco2)c(=O)c2nn(-c3ccccc3)c(C)c12`, the RP-LC retention time is 736 s.
As for `CCOC(=O)N1CCN(C(=O)c2cccc([N+](=O)[O-])c2C)CC1`, the RP-LC retention time was determined as 695 s.
The same measure for `COc1cccc(C(O)CN2CCN(c3ccc(F)cc3)CC2)c1` (stereo not given): 660 s; for `CC(=O)Nc1ccc(Br)cc1C(=O)c1ccccc1`: 840 s.
The same measure for `Cc1nnc(NC(=O)CSc2nnc(-c3ccc(=O)n(C)c3)n2C)s1`: 532 s.
The same measure for `CCn1cc(CN2CCC(C(=O)NC(C)c3ccccc3)CC2)c2cc(OC)ccc21` (stereo not given): 707 s.
`COc1cccc(CNC(=O)c2nc3cccnc3n(CC(C)C)c2=O)c1` displayed an RP-LC retention time of 850 s.
The same measure for `Cn1c(CNC(=O)c2cn3ccccc3n2)nc2ccccc21`: 564 s.
`O=C(Cc1csc(-c2ccccc2)n1)Nc1nc(-c2ccccc2Cl)cs1` showed an RP-LC retention time of 1210 s.
The same measure for `CC(=O)Nc1ccc(C2(C(=O)NCc3ccc4c(c3)OCO4)CCC2)cc1`: 730 s; for `Cc1cccc2c(=O)n(C3CCN(S(=O)(=O)c4ccc(C(C)C)cc4)CC3)cnc12`: 1120 s; for `c1ccc2c(CCNc3nc(N4CCCC4)c4n[nH]nc4n3)c[nH]c2c1`: 621 s.
For the compound `COc1ccc(F)cc1S(=O)(=O)NCC1(c2cccs2)CC1`, the RP-LC retention time is 933 s.
The value for `Cc1cc2nc(C)c(=O)n(CC(=O)NCCc3c[nH]c4ccccc34)c2cc1C` was 814 s; that for `CC1(C(=O)NC2CCCCCC2)CN(S(C)(=O)=O)CC(=O)N1c1cccc(F)c1` (stereo not given) was 835 s; that for `O=C(c1ccoc1)N1CCC(Cc2noc(C3CC3)n2)C1` (stereo not given) was 695 s.
The value for `CN(C)C/C=C(/c1ccc(Br)cc1)c1cccnc1` was 664 s; that for `CCOc1cccc(-c2noc(Cn3ncn4nc(-c5cc(C)ccc5C)cc4c3=O)n2)c1` was 1280 s; that for `CCN1C(=O)Cc2ccccc2C1C(=O)NCCOC` (stereo not given) was 610 s.
Compound `O=C(NCc1cc(-c2cc3ccccc3o2)on1)c1ccc2c(c1)OCO2` came in with an RP-LC retention time of 856 s.
`O=S(=O)(c1ccc(F)c(Cl)c1)N1CCc2nc(-c3ccccc3)ncc2C1`: the RP-LC retention time was determined as 1130 s.
Compound `CC(=O)c1cccc(NC(=O)c2cnn(-c3ccc(Br)cc3)c2)c1` came in with an RP-LC retention time of 940 s.
The same measure for `O=C(Cc1cccc2ccccc12)Nc1cc(-c2ccccn2)no1`: 878 s; for `Cn1nc(C(=O)N2CCCC(C(=O)NC3CC3)C2)c2c1CCN(C(=O)c1c(F)cccc1F)C2` (stereo not given): 660 s.
The value for `O=C(NCCCN1CCCCC1)c1ccc(-c2ccnc(N3CCCC3)n2)cc1` was 592 s.
`O=C(c1ccoc1)N1CCCC1Cc1noc(-c2cnccn2)n1` (stereo not given) displayed an RP-LC retention time of 686 s.
The same measure for `CCN1C(=O)C2(CCN(C(=O)C3CCCCC3)CC2)c2ccccc21`: 950 s; for `COc1ccc(-c2nc(Nc3nc(C)cc(C)n3)sc2CCC(=O)O)cc1`: 702 s.
The same measure for `CCOc1ccc2nc(C(=O)NCc3ccc(OC(C)C)cc3)cn2n1`: 940 s.
With `Cn1cc(-c2cc3n(n2)CCC(=O)N3CC(=O)NCc2ccccn2)c2ccccc21`, the RP-LC retention time amounted to 626 s.
The value for `Cc1oc(C2CCN(C(=O)Nc3ccc(F)cc3)CC2)nc1C(=O)N(C)C` was 684 s.
Compound `Cc1cc(C(=O)CN2CCN(C)CC2)c(C)n1-c1cccc(C(F)(F)F)c1` had an RP-LC retention time of 588 s.
On to `Cc1cc(C)c2[nH]c3c(c(=O)c2c1)CN(CC(=O)Nc1cc(F)cc(F)c1)CC3`, for which the RP-LC retention time was determined as 673 s.
For the compound `COc1nccnc1NC1CCN(C(=O)c2ccco2)CC1`, the RP-LC retention time stood at 690 s.
The value for `Cc1sc2ccn(CC(C)C)c(=O)c2c1C(=O)N1CCN(C2CCCCC2)CC1` was 642 s; that for `CCn1nccc1C(=O)N1CCC(c2noc(N)c2C)CC1` was 622 s.
The same measure for `COc1cc(OC)cc(C(=O)N2CCCC2COc2ccc(C(=O)N3CCCC3)cc2)c1` (stereo not given): 807 s; for `O=C(Nc1ccc2c(c1)OCCO2)N1CCCCC1c1nc(CCOCC2CC2)no1` (stereo not given): 878 s.
The same measure for `O=C(CN1C(=O)CC(c2ccccc2)S(=O)(=O)c2ccccc21)NCCc1ccccc1` (stereo not given): 855 s; for `COc1ccc(-c2cn3c(CC(=O)N4CCN(c5ncccn5)CC4)csc3n2)cc1OC`: 639 s; for `O=C(Nc1ccccc1)c1c(O)c2cccnc2n(-c2ccc(F)cc2)c1=O`: 1210 s.
Take `NC(=O)N/N=C1\CC2CC1C1C=CCC21` (stereo not given): the RP-LC retention time was 768 s.
`COC(=O)c1cc(S(=O)(=O)N2CCCC2C(=O)Nc2cccc(OC)c2)cn1C` (stereo not given) registered an RP-LC retention time of 826 s.
The same measure for `COc1ccc(-c2cc(N3CCC(NC(=O)c4ccc(OC)cc4OC)C3)n[nH]2)cc1` (stereo not given): 705 s.
The same measure for `CC(C)CNC(=O)c1ccc(-c2cccs2)nc1`: 825 s; for `CNC(=O)C1CN(C(=O)Nc2cc(OC)cc(OC)c2)CC12CCCC2` (stereo not given): 683 s; for `O=C(CCc1ccc2nc(-c3ccccc3)[nH]c2c1)N1CCC(N2CCCCC2)CC1`: 559 s.
The value for `Cc1nn(C)c(C)c1S(=O)(=O)N1CCCC(OCc2noc(C3CCOCC3)n2)C1` (stereo not given) was 716 s; that for `Cc1nc(C2CCOCC2)n(C2CCN(S(=O)(=O)c3cccc(Cl)c3)C2)n1` (stereo not given) was 738 s.
For `CC(=O)Oc1ccccc1C1=NN(C(C)=O)C(c2cccc(Br)c2)O1` (stereo not given), the RP-LC retention time stood at 1040 s.
The same measure for `CCOC(=O)c1cccc(NC(=O)CCc2c(-c3ccc(Cl)cc3)nc3ccccn23)c1`: 739 s; for `O=[N+]([O-])c1cccc2cn[nH]c12`: 767 s.
The value for `Cc1ccc(Nc2ncccc2S(N)(=O)=O)c(F)c1` was 840 s.
The value for `O=C1CC(c2noc(CCc3ccccc3)n2)CN1c1ccc(F)cc1` (stereo not given) was 966 s; that for `Cc1nc(-c2ccc(N3CCN(C(=O)COc4ccccc4)CC3)nc2)sc1C` was 851 s; that for `CCn1c(=O)c2ccn(CC(=O)Nc3ccc4c(c3)OCCO4)c2n(CC)c1=O` was 701 s.
Turning to `Cc1cnc(C(=O)N[C@@H]2CCC[C@@H]2C(=O)NCc2ccc3c(c2)OCO3)cn1`, the RP-LC retention time stood at 662 s.
`COc1ccc(-c2ncc3c(=O)n(Cc4ccccc4Cl)c(=O)n(C)c3n2)cc1` displayed an RP-LC retention time of 1210 s.
